Measured values published in patent US20200404919A1, “USE OF HETEROARYL-TRIAZOLE AND HETEROARYL-TETRAZOLE COMPOUNDS AS PESTICIDES IN PLANT PROTECTION” (Bayer Aktiengesellschaft, priority 2018, published 2020).

How the values were obtained:
Type in all cases: in vivo
Phaedon cochleariae = Phaedon cochleariae - spray test; conditions: in Brassica rapa, foliar, 168 h, read-out: mortality in %
Procedure, shortened: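 Chinese cabbage leaf disks sprayed with compound diluted in water containing 1000 ppm emulsifier, then infested with mustard beetle larvae once dry. Mortality in % scored after 7 days (100% = all larvae killed, 0% = none).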

Spodoptera frugiperda = Spodoptera frugiperda - spray test; conditions: in Zea mays, 168 h, read-out: mortality in %
Procedure, shortened: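 Maize leaf sections sprayed with compound diluted in water with 1000 ppm emulsifier, then infested with larvae once dry. Mortality (%) scored after 7 days; 100% = all caterpillars killed.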

Myzus persicae [1] = experiment: Myzus persicae - oral test; conditions: 120 h, read-out: mortality in %
Procedure, shortened: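 Mixed-population green peach aphids fed through parafilm on compound diluted in water plus IPL41 insect medium (33%+15% sugar). Mortality (%) scored after 5 days, 100% meaning all aphids killed.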

Aphis gossypii = Aphis gossypii - oral test; conditions: 120 h, read-out: mortality in %
Procedure, shortened: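 Mixed-population cotton aphids feed through parafilm on compound (acetone stock diluted in water) mixed with IPL41 insect medium containing sugar. Mortality (%) scored after 5 days.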

Diabrotica balteata = Diabrotica balteata - spray test; conditions: 168 h, 160 μg/well, germinated wheat seeds, larvae, after 7 days, read-out: efficacy in %
Procedure, shortened: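 Wheat seeds germinated 1 day on agar were sprayed with compound diluted in water with 1000 ppm emulsifier, then infested with 10-20 Diabrotica balteata larvae. Efficacy in % scored after 7 days: 100% = seedlings grown as untreated, uninfected control; 0% = no seedlings grown.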

Nezara viridula [2] = experiment: Nezara viridula - spray test 1; conditions: in Hordeum vulgare, 96 h, read-out: mortality in %
Procedure, shortened: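 Barley plants carrying southern green stink bug larvae were sprayed with compound diluted in water with 1000 ppm emulsifier. Mortality (%) was scored after 4 days.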

Nilaparvata lugens [3] = experiment: Nilaparvata lugens - spray test 1; conditions: in Oryza sativa, 96 h, read-out: mortality in %, 500 g/ha, rice plants, after 4 days
Procedure, shortened: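 Rice plants (Oryza sativa) were sprayed with the compound preparation in water containing 1000 ppm emulsifier, then infested with brown planthoppers. Percent mortality scored after 4 days (100% = all killed, 0% = none).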

Nezara viridula [4] = experiment: Nezara viridula - spray test 2; conditions: 96 h, barley plants, larvae, after 4 days
Description: Nezara viridula—Spray Test 2
(§1) To produce a suitable preparation of active compound, 1 part by weight of active compound is mixed with the stated amount of solvent, and the concentrate is diluted with water, containing an emulsifier concentration of 1000 ppm, to the desired concentration. Ammonium salt and/or penetration enhancer in a dosage of 1000 ppm are added to the desired concentration if necessary.
Barley plants (Hordeum vulgare) infested with larvae of the southern green stink bug (Nezara viridula) are sprayed with a test solution containing the desired concentration of the active ingredient.
After 4 days mortality in % is determined. 100% means all the stink bugs have been killed; 0% means none of the stink bugs have been killed.

Nilaparvata lugens [5] = experiment: Nilaparvata lugens - spray test 2; conditions: 96 h, rice plants, larvae, after 4 days
Description: Nilaparvata lugens —Spray Test 2
as §1, with “solvents” for “solvent,”, “and” for “and the concentrate”, “concentration. Further test concentrations are prepared by dilution with emulsifier containing water.” for “concentration.”
Rice plants (Oryza sativa) are treated by being sprayed with the desired concentration of the active compound and are infested with larvae of the brown planthopper (Nilaparvata lugens).
After 4 days mortality in % is determined. 100% means all planthoppers have been killed and 0% means none of the planthoppers have been killed.

Myzus persicae [6] = experiment: Myzus persicae - spray test; conditions: foliar, 120 h, Chinese cabbage leaf disks, all instars, after 5 days
Description: Myzus persicae—Spray Test
To produce a suitable preparation of active compound, 1 part by weight of active compound is mixed with the stated amount of solvents and is diluted with water, containing an emulsifier concentration of 1000 ppm, to the desired concentration. Further test concentrations are prepared by dilution with emulsifier containing water.
Chinese cabbage (Brassica pekinensis) leaf disks infected with all instars of the green peach aphid (Myzus persicae), are sprayed with a preparation of the active ingredient of the desired concentration.
After 5 days mortality in % is determined. 100% means all aphids have been killed and 0% means none of the aphids have been killed.

Meloidogyne incognita = Meloidogyne incognita - test; conditions: 336 h, salad seedlings in sand, after 14 days, read-out: nematicidal activity (percentage of gall formation)
Procedure, shortened: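 Compound taken up in acetone and diluted with water, then applied to sand with M. incognita eggs and larvae plus salad seeds. Gall formation on roots scored after 14 days: 100% means no galls, 0% equals untreated control.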

Culex quinquefasciatus = experiment: Culex test (CULXFAS surface treatment & contact assay); conditions: 30 minutes exposure, 24 hours after contact, read-out: efficacy (mortality in percent)
Procedure, shortened: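 Test compound dissolved in acetone + 2000 ppm rapeseed oil methyl ester, applied to glazed tile and acetone evaporated; adult mosquitoes exposed on dried surface for 30 minutes. Mortality (%) scored 24 hours after contact; 100% = all insects dead, 0% = none dead.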

[7] = system: Anopheles funestus strain FUMOZ-R; experiment: Anopheles test (ANPHFU surface treatment & contact assay); conditions: 30 minutes exposure, 24 hours after contact, read-out: efficacy (mortality in percent)
From the text: Anopheles Test (ANPHFU Surface Treatment & Contact Assay)
Solvent: Acetone+2000 ppm rapeseed oil methyl ester (RME)
In order to produce a sufficient, active ingredient containing solution it is necessary to solve the test-compound in an acetone/RME solvent mixture. This solution is pipetted onto a glazed tile and after evaporation of the acetone, adult mosquitoes of the species Anopheles funestus strain FUMOZ-R (Hunt et al., Med Vet Entomol. 2005 Sep. 19(3):271-5) are placed onto the dried surface. The exposure time is 30 minutes.
Mortality in percent (%) is determined 24 hours after contact to the treated surface. 100% mortality means that all test-insects are dead, whereas 0% means that not a single insect died.

[8] = system: Aedes aegypti strain MONHEIM; experiment: Aedes test (AEDSAE surface treatment & contact assay); conditions: 30 minutes exposure, 24 hours after contact, read-out: efficacy (mortality in percent)
Procedure, shortened: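 Compound in acetone plus 2000 ppm RME applied to glazed tile; after acetone evaporation, adult mosquitoes held on dried surface for 30 minutes. Percent mortality scored 24 hours after contact.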

[9] = surface concentration 4 mg/m^2, glazed tile
[10] = surface concentration 20 mg/m^2, glazed tile
[11] = surface concentration 100 mg/m^2, glazed tile

Compound CC(NC(=O)c1cc(Cl)cc(C(F)(F)F)c1)c1ncnn1-c1ncccn1 (centres unmarked) [Compound I-76] has a mortality at 500 g/ha (Phaedon cochleariae) of 100%, a mortality at 500 g/ha (Spodoptera frugiperda) of 100% and a mortality at 20 ppm (Myzus persicae [1]) of 100%. The mortality at 100 ppm (Aphis gossypii) was 100%, the pest or weed control at 160 µg/disc, 160 µg/well (Diabrotica balteata) was 100% and the mortality at 500 g/ha (Nezara viridula [2]) was 100%. For the same compound, the mortality at 500 g/ha (Nilaparvata lugens [3]) was 100%, the mortality at 500 g/ha (Nezara viridula [4]) was 100% and the mortality at 500 g/ha (Nilaparvata lugens [5]) was 100%.
C[C@@H](c1ncnn1-c1ncccn1)N(CC1CC1)C(=O)c1cc(Cl)cc(C(F)(F)F)c1 [Compound I-93, 3-chloro-N-(cyclopropylmethyl)-N-[(1S)-1-(2-pyrimidin-2-yl-1,2,4-triazol-3-yl)ethyl]-5-(trifluoromethyl)benzamide] gave a mortality at 500 g/ha (Phaedon cochleariae) of 100%, a mortality at 500 g/ha (Spodoptera frugiperda) of 100% and a mortality at 500 g/ha (Myzus persicae [6]) of 100%. For the same compound, the mortality at 20 ppm (Myzus persicae [1]) was 100%, the mortality at 100 ppm (Aphis gossypii) was 100% and the pest or weed control at 160 µg/disc, 160 µg/well (Diabrotica balteata) was 100%. The pest or weed control at 20 ppm (Meloidogyne incognita) was 100%, the mortality at 500 g/ha (Nilaparvata lugens [3]) was 100% and the mortality at 500 g/ha (Nezara viridula [4]) was 100%. It also gave a mortality at 500 g/ha (Nilaparvata lugens [5]) of 100%, a mortality at 4 mg/m2 (Culex quinquefasciatus; [9]) of 80 to 100% and a mortality at 20 mg/m2 (Culex quinquefasciatus; [10]) of 80 to 100%. It also gave a mortality at 100 mg/m2 (Culex quinquefasciatus; [11]) of 80 to 100%, a mortality at 4 mg/m2 [7, 9] of 80 to 100% and a mortality at 20 mg/m2 [7, 10] of 80 to 100%. It also gave a mortality at 100 mg/m2 [7, 11] of 80 to 100%, a mortality at 4 mg/m2 [8, 9] of 80 to 100% and a mortality at 20 mg/m2 [8, 10] of 80 to 100%. For the same compound, the mortality at 100 mg/m2 [8, 11] was 80 to 100%.
For CC(c1ncnn1-c1ncccn1)N(CC1CC1)C(=O)c1cc(Cl)cc(C(F)(F)F)c1 (centres unmarked) [Compound I-40, 3-chloro-N-(cyclopropylmethyl)-N-[1-(2-pyrimidin-2-yl-1,2,4-triazol-3-yl)ethyl]-5-(trifluoromethyl)benzamide], the mortality at 500 g/ha (Phaedon cochleariae) was 100%, the mortality at 500 g/ha (Spodoptera frugiperda) was 100% and the mortality at 500 g/ha (Myzus persicae [6]) was 90%. For the same compound, the mortality at 20 ppm (Myzus persicae [1]) was 100%, the mortality at 100 ppm (Aphis gossypii) was 100% and the pest or weed control at 160 µg/disc, 160 µg/well (Diabrotica balteata) was 100%. For the same compound, the mortality at 500 g/ha (Nezara viridula [2]) was 100%, the mortality at 500 g/ha (Nilaparvata lugens [3]) was 100% and the mortality at 500 g/ha (Nezara viridula [4]) was 100%. It also gave a mortality at 500 g/ha (Nilaparvata lugens [5]) of 100%.
